# Reference: patent US6579886B2, “Selective iglur5 receptor antagonists” (Eli Lilly and Company, priority 1999, dated 2003)
# Counter-ions that a name gives are not always drawn.
# Columns and labels:
# [1] = system: neurogenic dural protein extravasation; experiment: Animal model of dural protein extravasation (trigeminal ganglion stimulation, Evans Blue); type: in vivo, rats or guinea pigs; conditions: given orally; approximated from dose-response curve
# Procedure: Methods, 81(1,2) 19-24 (1998). For example, the following animal model is employed to determine the ability of each of the compounds of formula I to inhibit protein extravasation, an exemplary functional assay of the neuronal mechanism of migraine.
# Harlan Sprague-Dawley rats (225-325 g) or guinea pigs from Charles River Laboratories (225-325 g) are anesthetized with sodium pentobarbital intraperitoneally (65 mg/kg or 45 mg/kg respectively) and placed in a stereotaxic frame (David Kopf Instruments) with the incisor bar set at −3.5 mm for rats or −4.0 mm for guinea pigs. Following a midline sagital scalp incision, two pairs of bilateral holes are drilled through the skull (6 mm posterially, 2.0 and 4.0 mm laterally in rats; 4 mm posteriorly and 3.2 and 5.2 mm laterally in guinea pigs, all coordinates referenced to bregma). […]
# A fluorescence microscope (Zeiss) equipped with a grating monchromator and a spectrophotometer is used to quantify the amount of Evans Blue dye in each sample. An excitation wavelength of approximately 535 nm is utilized and the emission intensity at 600 nm was determined. […] This facilitates the computer-controlled movement of the stage with fluorescence measurements at 25 points ([…]) on each dural sample. The mean and standard deviation of the measurements are determined by the computer. […]
# [2] = biological target: T1, iGluR5 receptor (relative to iGluR2 AMPA receptor subtype) (Homo sapiens, UniProt P39086); experiment: iGluR5 antagonist binding affinity profile: displacement of 3[H] kainate (iGluR5) versus 3[H] AMPA (iGluR2) in stably transfected HEK293 cells; conditions: HEK293 cells stably transfected with human iGluR receptors; 3[H] kainate vs 3[H] AMPA displacement
# T1 construct: expressed in transfected cells; host or cells: HEK293 cells, stably transfected
# Excerpt: To establish that the iGluR5 receptor subtype is mediating neurogenic protein extravasation, a functional characteristic of migraine, the binding affinity of the compounds of formula I to the iGluR5 receptor is first measured using standard methods. For example, the activity of compounds acting at the iGluR5 receptor can be determined by radiolabelled ligand binding studies at the cloned and expressed human iGluR5 receptor (Korczak et al., 1994, Recept. Channels 3; 41-49), and by whole cell voltage clamp electrophysiological recordings of currents in acutely isolated rat dorsal root ganglion neurons (Bleakman et al., 1996, Mol. Pharmacol. 49; 581-585). The selectivity of compounds acting at the iGluR5 receptor subtype can then be determined by comparing antagonist activity at the iGluR5 receptor with antagonist activity at other AMPA and kainate receptors. […] AMPA by increasing concentrations of antagonist is measured on iGluR1, iGluR2, iGluR3, and iGluR4 expressing cells, while displacement of ^3[H] kainate (KA) is measured on iGluR5, iGluR6, iGluR7, and KA2-expressing cells. As an indicia of selectivity, the ratio of binding affinity to the iGluR2 AMPA receptor subtype, versus the binding affinity to iGluR5 kainate receptor subtype, is also determined.
# T1 sequence (P39086 31-918): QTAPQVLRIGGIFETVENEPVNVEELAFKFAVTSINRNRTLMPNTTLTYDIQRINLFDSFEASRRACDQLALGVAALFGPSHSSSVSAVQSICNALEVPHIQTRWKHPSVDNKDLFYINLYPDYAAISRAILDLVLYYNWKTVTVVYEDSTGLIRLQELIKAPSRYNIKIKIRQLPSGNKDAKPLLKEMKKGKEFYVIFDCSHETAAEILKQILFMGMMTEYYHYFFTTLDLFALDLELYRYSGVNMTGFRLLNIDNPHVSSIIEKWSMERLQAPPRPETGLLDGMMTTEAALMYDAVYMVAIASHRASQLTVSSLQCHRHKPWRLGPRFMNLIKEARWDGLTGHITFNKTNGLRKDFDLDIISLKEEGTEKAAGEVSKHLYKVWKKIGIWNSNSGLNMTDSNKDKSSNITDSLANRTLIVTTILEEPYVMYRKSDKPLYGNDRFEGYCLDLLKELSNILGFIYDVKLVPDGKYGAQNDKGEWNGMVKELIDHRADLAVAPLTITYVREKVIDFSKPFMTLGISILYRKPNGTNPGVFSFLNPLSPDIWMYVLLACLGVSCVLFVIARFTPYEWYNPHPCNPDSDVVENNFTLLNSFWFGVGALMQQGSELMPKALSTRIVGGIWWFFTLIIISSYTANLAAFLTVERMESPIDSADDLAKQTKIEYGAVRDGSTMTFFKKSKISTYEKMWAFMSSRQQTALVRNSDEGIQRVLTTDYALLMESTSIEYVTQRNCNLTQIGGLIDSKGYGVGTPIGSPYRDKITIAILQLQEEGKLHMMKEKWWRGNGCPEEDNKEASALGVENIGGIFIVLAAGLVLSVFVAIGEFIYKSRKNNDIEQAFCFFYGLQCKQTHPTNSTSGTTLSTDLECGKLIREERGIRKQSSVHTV
compound,measurement,setting,value
"CCOC(=O)c1cn(C[C@H]2CC[C@H]3CN[C@H](C(=O)OCC)C[C@H]3C2)cn1 [Example 3, [3S,4aR,6S,8aR]-Ethyl-6-((4-ethoxycarbonyl-1H-imidazol-1-yl)methyl)-1,2,3,4,4a,5,6,7,8,8a-decahydroisoquinoline-3-carboxylate]",ID100 (dose that inhibits the extravasation by 100%),[1],0.0003 µg/kg
O=C(O)[C@@H]1C[C@H]2C[C@@H](Cc3ccccc3-c3nnn[nH]3)CC[C@H]2CN1,selectivity: ratio of binding affinity for the iGluR5 receptor over the iGluR2 receptor,[2],5 fold
"CCOC(=O)c1ncn(C[C@H]2CC[C@H]3CN[C@H](C(=O)OCC)C[C@H]3C2)c1C(=O)OCC (as salt: hydrochloride) [Example 11, [3S 4aR,6S,8aR]-Ethyl 6-{[4,5-Bis(ethoxycarbonyl)-1H-imidazol-1-yl]methyl}1 2,3,4,4a,5,6,7,8,8a-decahydroisoquinoline-3-carboxylate Dihydrochloride]",melting point,,99 to 101 °C
